These results are taken from patent US12493042B2, “Molecules and methods for iterative polypeptide analysis and processing” (priority 2013, dated 2025).

In data set [1] the target is T1, Edmanase (Edman degradation enzyme, modified cruzain) (Trypanosoma cruzi, UniProt P25779, A260C/C147G/G187S/L282Y).
T1 construct: His tag; made in house; host or cells: E. coli BL-21(De3), pet42(a)
Format: biochemical. Conditions: PITC-derivatized X-AMC substrate, 30 degrees, excitation 370 nm, emission 460 nm. The method, then:
(§1) Single amino acid, aminomethylcoumarin (AMC) containing compounds were obtained from BAChem (Bubendorf, Switzerland). These included Arg-AMC, Asn-AMC, Phe-AMC, Met-AMC, Ala-AMC, and Pro-AMC. Phenylisothiocyanate (PITC) was purchased from Thermo-scientific and coupled to the N-terminus of each substrate by incubating for 10 minutes at room temperature in a 100 μL solution of acetonitrile:pyridine:water (10:5:3) with 5 μL of PITC. The derivatized substrate was then dried by rotary evaporation and suspended in 250 μL of 1× Phosphate Buffered Saline (PBS).
(§2) The ability of the Edman degradation enzyme to perform N-terminal cleavage on six substrates of the form Ed-X-AMC, where Ed denotes the Edman reagent, X is an amino acid from the set (Ala, […], Phe, Met, Pro, Arg), and AMC is the fluorogenic […] group was characterized. Cleavage of the X-AMC bond was monitored by the appearance of fluorescence (FIG. 6).
(§3) All kinetic measurements were performed in a 96-well corning plate on a BioTek Synergy2 plate reader at 30 degrees. Reactions were started by adding 5-20 μL of purified enzyme to 100 μL of 10 mM substrate solution. Final enzyme concentration was between 1 nM and 100 nM, depending on the experiment. Fluorescence of the cleaved product was measured by exciting at 370 nm (30 second intervals for 1-10 hours) and monitoring emissions at 460 nm. A standard curve using AMC from Invitrogen was referenced quantitate the amount of product formation.

For data set [2], the target named is Edmanase (Edman degradation enzyme; Trypanosoma cruzi cruzain variant C25G/G65S/A138C/L160Y, SEQ ID NO: 29) (Trypanosoma cruzi, UniProt P25779, A260C/A295H/A296K/C147G/E217T/G187S/G216A/L282Y/N191D/Q141S/Q281S/S151A). Format: biochemical. The conditions noted are these: Ed-X-AMC (PITC-derivatized) substrate; 30 degrees; 1 nM-100 nM enzyme; excitation 370 nm, emission 460 nm.
Excerpt: (§4) A synthetic gene containing the Edman degradation enzyme was purchased from GenScript. The gene encoded a modified version of the cruzian enzyme of T. cruzi having the following substitution mutations: C25G, G65S, A138C, and L160Y.
(§5) The gene was inserted between an NdeI andan XhoI site in a pet42(a) (Novagen) expression vector and transformed into E. coli, BL-21(De3) chemically competent cells. Protein was then over-expressed following Studier's auto-induction protocol. Bacterial cells were harvested by centrifugation of the cell culture at 5000 rpm and 4° C. for 10 minutes. Cells were then suspended in 1×PBS with 10% glycerol and 6M guanidine chloride, pH 7.4. Cells were then lysed by sonication (15 seconds at 20% power, 8 times on ice). The cell lysate was centrifuged at 18000 rpm, 4 degrees for 20 minutes. The supernatant was then filtered through a 0.2 μm cellulose acetate filter. The filtered lysate was loaded onto a 5 mL HisTrap (Ni-NTA) column and washed with 5 column volumes of binding buffer (50 mM Tris-HCl, 150 mM NaCl, 6M guanidine chloride, 25 mM imidazole). Bound protein was then eluted in 50 mM Tris-HCl, 150 mM NaCl, 6M guanidine chloride, 500 mM imidazole. Purified fractions were prepared for SDS-PAGE analysis by mixing 2 parts sample with 1 part 4× loading dye. Samples were analyzed on 16% SDS-PAGE precast gels, and visualized by Coomassie staining. The purified protein was then refolded by successive, overnight dialyses into 1×PBS containing 5M, 3M, 1M, 0.5M, and 0M guanidine chloride. Protein concentration was determined using the calculated molar extinction coefficient and measuring the A280 on an ND-8000 spectrophotometer (Thermo Fisher Scientific).
as §1, with “(PBS). Inhibitor compound, 1-(2-anilino-5-methyl-1,3-thiazol-4-yl)-ethanone, was ordered from Sigma-Aldrich (St. Louis, MO).” for “(PBS).”
as §2, §3

Data set [3] concerns Cc1cc(=O)oc2cc(NC(=O)[C@H](CCCNC(=N)N)NC(=S)Nc3ccccc3)ccc12. In words: purified protein, by the assay type. Format: biochemical, Trypanosoma cruzi. Conditions: other: Ed-X-AMC (PITC-derivatized) substrate; 30 degrees; 1 nM-100 nM enzyme; excitation 370 nm, emission 460 nm; pH 7.4; 30.0 °C.
Excerpt: as §4, §5
as §1, with “(PBS). Inhibitor compound, 1-(2-anilino-5-methyl-1,3-thiazol-4-yl)-ethanone, was ordered from Sigma-Aldrich (St. Louis, MO).” for “(PBS).”
as §2, §3

Data set [4] has as its system Cc1cc(=O)oc2cc(NC(=O)[C@H](Cc3ccccc3)NC(=S)Nc3ccccc3)ccc12. In words: purified protein, by the assay type. The class given is biochemical, Trypanosoma cruzi. Conditions: other: Ed-X-AMC (PITC-derivatized) substrate; 30 degrees; 1 nM-100 nM enzyme; excitation 370 nm, emission 460 nm; pH 7.4; 30.0 °C.
Excerpt: as §4, §5
as §1, with “(PBS). Inhibitor compound, 1-(2-anilino-5-methyl-1,3-thiazol-4-yl)-ethanone, was ordered from Sigma-Aldrich (St. Louis, MO).” for “(PBS).”
as §2, §3

Data set [5] concerns the target T2, peptides (Thermus thermophilus, UniProt Q5SGX2, A229N/A231G/F152V/F205A/F336A/G338T/H142N/H143G/H212A/H232D/H287G/I228V/K234Y/K289N/L100D/L154K/L165D/L303D/L340G/M230E/W153G/Y257T).
T2 construct: a truncated version of wild-type Thermus Thermophilus PheRS (residues 86-350)
Put plainly: Binding of Phe NAAB mutant to peptides compared with wild-type protein.

For data set [6], the target named is N-terminal amino acid of peptides. Put plainly: Biolayer interferometry binding assays between peptides and purified NAABs. Conditions: 1×PBS; dissociation rate constant divided by association rate constant, 1:1 model; read-out: Measured Affinity Constants. (In general: Biolayer interferometry detects binding as a change in optical thickness at a sensor tip.)
Procedure: Real time binding assays between peptides and purified NAABs were performed using biolayer interferometry on a Blitz system (Fortebio, Menlo Park, CA). This system monitors interference of light reflected from the surface of a fiber optic sensor to measure the thickness of molecules bound to the sensor surface. Sensors coated with peptides were allowed to bind to the NAABs in 1×PBS at several different protein concentrations. Binding kinetics were calculated using the Blitz software package, which fit the observed binding curves to a 1:1 binding model to calculate the association rate constants. NAABs were allowed to dissociate by incubation of the sensors in 1×PBS. Dissociation curves were fit to a 1:1 model to calculate the dissociation rate constants. Binding affinities were calculated as the kinetic dissociation rate constant divided by the kinetic association rate constant.
Each square in the binding matrix represents the binding affinity for a single NAAB with an N-terminal amino acid as measured by biolayer interferometry. Each row in the matrix contains all the binding data for a single NAAB, and each column contains the binding data for a single N-terminal amino acid (shown by single-letter code).

T2 sequence (Q5SGX2 other isoform, or with tags, fused parts or gaps with the stated changes): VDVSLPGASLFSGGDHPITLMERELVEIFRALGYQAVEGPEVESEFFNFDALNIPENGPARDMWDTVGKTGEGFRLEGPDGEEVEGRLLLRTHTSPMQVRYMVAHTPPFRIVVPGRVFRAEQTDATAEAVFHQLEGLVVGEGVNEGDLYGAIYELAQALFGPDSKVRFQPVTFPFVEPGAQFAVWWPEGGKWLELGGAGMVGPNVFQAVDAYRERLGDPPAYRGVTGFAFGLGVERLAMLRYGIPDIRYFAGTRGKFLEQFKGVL

The term Km denotes the substrate concentration at which the rate is half of its maximum. For `O=C(O)[C@@H]1CCCN1` [Proline], in data set [1], the Kcat worked out at 0.0014 s⁻¹ and the Km turned out to be 252 µM.

As for `Cc1cc(=O)oc2cc(NC(=O)[C@H](CCCNC(=N)N)NC(=S)Nc3ccccc3)ccc12` [Arginine], in data set [2], the Kcat is 0.087 s⁻¹.

Usually kcat stands for the number of substrate molecules converted per active site and unit of time at saturation. One may read the kcat/Km as the second-order rate constant that governs catalysis at low substrate concentration. Consider “Edmanase (Edman degradation enzyme; Trypanosoma cruzi cruzain variant C25G/G65S/A138C/L160Y, SEQ ID NO: 29) (Trypanosoma cruzi; A260C/A295H/A296K/C147G/E217T/G187S/G216A/L282Y/N191D/Q141S/Q281S/S151A)”, for which the Km in data set [3] was determined as 167.8 µM. In data set [4], the Michaelis constant (Km) came to 122.8 µM, the kcat turned out to be 0.47 s⁻¹ and the kcat/Km came to 3800 M⁻¹ s⁻¹.

For the compound `N[C@@H](Cc1ccccc1)C(=O)O` [Phenylalanine], in data set [5], the “binding to peptides compared to the wild-type protein” value was “Tighter binding”.

With `CSCC[C@H](NC(=S)Nc1ccccc1)C(=O)Nc1ccc2c(C)cc(=O)oc2c1` [Methionine], in data set [2], the Kcat was 0.54 s⁻¹ and the Km stood at 272 µM.

Regarding `C[C@H](N)C(=O)O` [Alanine], in data set [1], the Kcat was determined as 0.55 s⁻¹ and the Michaelis constant (Km) was determined as 21.3 µM.

For the compound Glutamate, in data set [6], the Kd amounted to 2120 nM.
